SMILES strings stand for the structures.

The subject of one test is UO-31. The test can be described thus: NCI-60 single-dose antiproliferative assay (SRB). The note with it: UO-31, Renal cancer; for inhibition at 10 µM: Homo sapiens, UO-31, 10 μM single dose, read-out: Cell Growth inhibition Percent. It is filed as cell-based, human. The method, boiled down: (§1)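 Single dose 10 µM (final), 48 h, 37 °C, 5% CO2; RPMI 1640/5% FBS. Endpoint: TCA fixation, 0.4% SRB, absorbance 515 nm. % growth = (Ti–Tz)/(C–Tz)×100, or (Ti–Tz)/Tz×100 when Ti < Tz; reported as GI%.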

The next test deals with hCA XII (Homo sapiens, UniProt O43570). In words: Stopped flow CO2 hydrase assay.
A further test concerns K-562. The test can be described thus: NCI-60 single-dose antiproliferative assay (SRB). The class given is cell-based. The note with it: Homo sapiens, K562; 10 μM single dose; K-562, Leukemia; read-out: Cell Growth inhibition Percent. The method, boiled down: as §1
The next test concerns UACC-62. In words: NCI-60 single-dose antiproliferative assay (SRB). The class given is cell-based. The note with it: Homo sapiens; 10 μM single dose; UACC-62, Melanoma; read-out: Cell Growth inhibition Percent. In short, it runs like this: as §1
A further test relates to KM12. In words: NCI-60 single-dose antiproliferative assay (SRB). It is filed as cell-based. As to conditions: Homo sapiens; 10 μM single dose; KM12, Colon cancer; read-out: Cell Growth inhibition Percent. The method, boiled down: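 Readout is sulforhodamine B absorbance at 515 nm after TCA fixation, converted to percent growth versus time-zero (Tz) and control (C) plates and reported as GI%. Compounds were tested once at 10 µM for 48 h in RPMI 1640 containing 5% FBS.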

Another test deals with U251. In words: NCI-60 single-dose antiproliferative assay (SRB). The note with it: Homo sapiens, U-251; 10 μM single dose; U251, CNS cancer; read-out: Cell Growth inhibition Percent. It is filed as cell-based. The method, boiled down:
as §1

The next test concerns NCI-H460. In words: NCI-60 single-dose antiproliferative assay (SRB). The class given is cell-based. As to conditions: Homo sapiens; 10 μM single dose; NCI-H460, Non-small cell lung cancer; read-out: Cell Growth inhibition Percent. In short, it runs like this: as §1
The next test has as its system SN12C. The test can be described thus: NCI-60 single-dose antiproliferative assay (SRB). It is filed as cell-based. As to conditions: Homo sapiens, 10 μM single dose, Renal cancer, read-out: Cell Growth inhibition Percent. The method, boiled down: as §1
The next test deals with T-47D. In words: NCI-60 single-dose antiproliferative assay (SRB). It is filed as cell-based. As to conditions: Homo sapiens, T47D, 10 μM single dose, Breast cancer, read-out: Cell Growth inhibition Percent. In short, it runs like this:
as §1

Another test has as its system MALME-3 M. The test can be described thus: NCI-60 single-dose antiproliferative assay (SRB). The class given is cell-based. As to conditions: Homo sapiens, 10 μM single dose, Melanoma, read-out: Cell Growth inhibition Percent. In short, it runs like this:
as §1

Another test concerns OVCAR-4. In words: NCI-60 single-dose antiproliferative assay (SRB). The class given is cell-based. The note with it: Homo sapiens; 10 μM single dose; OVCAR-4, Ovarian Cancer; read-out: Cell Growth inhibition Percent. In short, it runs like this: as §1
A further test has as its system A549/ATCC. In words: NCI-60 single-dose antiproliferative assay (SRB). It is filed as cell-based. The note with it: Homo sapiens, 10 μM single dose, Non-small cell lung cancer, read-out: Cell Growth inhibition Percent. The method, boiled down:
as §1

The next test deals with A498. The test can be described thus: NCI-60 single-dose antiproliferative assay (SRB). It is filed as cell-based. The note with it: Homo sapiens; 10 μM single dose; A498, Renal cancer; read-out: Cell Growth inhibition Percent. In short, it runs like this: as §1
For the next test, the system named is SF-295. The test can be described thus: NCI-60 single-dose antiproliferative assay (SRB). It is filed as cell-based. The note with it: Homo sapiens; 10 μM single dose; SF-295, CNS cancer; read-out: Cell Growth inhibition Percent. The method, boiled down:
as §1

In another test the test system is SNB-75. In words: NCI-60 single-dose antiproliferative assay (SRB). The note with it: Homo sapiens; 10 μM single dose; SNB-75, CNS cancer; read-out: Cell Growth inhibition Percent. It is filed as cell-based. The method, boiled down:
as §1

A further test has as its system NCI 60 cancer cell lines. In words: NCI-60 single-dose antiproliferative assay, mean over panel. It is filed as cell-based. The note with it: Homo sapiens; 10 μM single dose; mean over all NCI panel cell lines; read-out: MEAN % Growth inhibition. The method, then: From the newly synthesized compounds, eleven compounds (4c, 4d, 5, 9a, 9b, 11a, 11b, 13b, 13c, 15b, and 15c) were selected by the National Cancer Institute (NCI) Developmental Therapeutics Program (DTP), Bethesda, Maryland, USA for the in vitro anti-proliferative activity evaluation. The selected compounds were examined at 10 μM dose against the NCI 60-cell line panel. This panel consists of nine cell line groups of leukemia, non-small cell lung carcinoma (NSCLC), melanoma, colon, CNS, ovarian, renal, prostate, and breast cancers. The results are reported as mean-graph of the percent growth relative to control and presented as percentage growth inhibition (GI%), furthermore, mean GI% of each compound over all panel cell lines was calculated (Table 1; Additional file 1; S3: In vitro biological activity).
From the newly synthesized compounds, eleven compounds were selected by the National Cancer Institute (NCI) Developmental Therapeutics Program (DTP), Bethesda, Maryland, USA for the in vitro anti-proliferative activity evaluation (For further details see supplementary materials).
NCI In-vitro Cancer Screening is a two-phase procedure that starts with the assessment of all compounds against the sixty NCI cell line panel depicting leukemia, NSCLC, CNS cancer, melanoma, prostate cancer, breast cancer, renal cancer, colon cancer and ovarian cancer cell lines at a single point of 10μM. The output from the single-dose screen is reportable as a mean graph.
The human tumor cell lines of the cancer screening panel were grown in RPMI 1640 medium containing 5% fetal bovine serum and 2 mM L-glutamine. For a typical screening experiment, cells were inoculated into 96 well microtiter plates in […] at plating densities ranging from 5000 to 40,000 cells/well depending on the doubling time of individual cell lines. After cell inoculation, the microtiter plates were incubated at 37 °C, 5% CO2, 95% air and 100% relative humidity for 24 h prior to addition of experimental drugs. After 24 h, two plates of each cell line were fixed in situ with trichloroacetic acid (TCA), to represent a measurement of the cell population for each cell line at the time of drug addition (Tz). Experimental drugs were solubilized in dimethyl sulfoxide at 400-fold the desired final maximum test concentration and stored frozen prior to use. At the time of drug addition, an aliquot of frozen concentrate was thawed and diluted to twice the desired final maximum test concentration with complete medium containing 50 µg/ml gentamicin. Aliquot of 100 µl of the drug dilution was added to the appropriate microtiter wells already containing 100 µl of medium, resulting in the required final drug concentration (10 µM). Triplicate wells were prepared for each individual dose. Following drug addition, the plates were incubated for an additional 48 h at 37 °C, 5% CO2, 95% air, and 100% relative humidity. For adherent cells, the assay was terminated by the addition of cold TCA. Cells were fixed in situ by the gentle addition of 50 µl of cold 50% (w/v) TCA (final concentration, 10% TCA) and incubated for 60 min at 4 °C. The supernatant was discarded, and the plates were washed five times with tap water and air dried. Sulforhodamine B (SRB) solution (100 µl) at 0.4% (w/v) in 1% acetic acid was added to each well, and plates were incubated for 10 min at room temperature. After staining, unbound dye was removed by washing five times with 1% acetic acid and the plates were air dried. Bound stain was subsequently solubilized with 10 mM trizma base, and the absorbance was read on an automated plate reader at a wavelength of 515 nm. For suspension cells, the methodology was the same except that the assay was terminated by fixing settled cells at the bottom of the wells by gently adding 50 µl of 80% TCA (final concentration, 16% TCA). […]

The target in a further test is hCA IX (Homo sapiens, UniProt Q16790). In words: Stopped flow CO2 hydrase assay.
Another test relates to BT-549. The test can be described thus: NCI-60 single-dose antiproliferative assay (SRB). The class given is cell-based. The note with it: Homo sapiens; 10 μM single dose; BT-549, Breast cancer; read-out: Cell Growth inhibition Percent. The method, boiled down:
as §1

Sequence of hCA XII (O43570 25-354): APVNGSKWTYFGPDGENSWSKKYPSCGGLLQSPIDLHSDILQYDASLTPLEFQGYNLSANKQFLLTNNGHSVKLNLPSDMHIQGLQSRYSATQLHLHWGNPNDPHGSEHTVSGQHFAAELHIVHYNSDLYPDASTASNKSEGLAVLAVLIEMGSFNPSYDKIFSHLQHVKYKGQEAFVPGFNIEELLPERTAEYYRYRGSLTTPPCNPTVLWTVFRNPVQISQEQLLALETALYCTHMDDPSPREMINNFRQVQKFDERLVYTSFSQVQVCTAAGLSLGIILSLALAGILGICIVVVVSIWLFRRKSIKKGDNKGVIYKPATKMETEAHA

The term inhibition denotes the drop in the measured response relative to a control, in per cent. Usually Ki stands for a dissociation constant, usually derived from enzyme kinetics or from competition with a known ligand. Lower therefore signals higher affinity. In the case of `O=C(Nc1ccc(NC=C2C(=O)Nc3ccccc32)cc1)Nc1nccs1` [Compound 15c, 1-{4-[((2-Oxoindolin-3-ylidene)methyl)amino]phenyl}-3-(thiazol-2-yl)urea], the inhibition at 10 µM in the test with UO-31 was 51.6%; with K-562, 82.7%; in the test on UACC-62, 75.1%; with KM12, 40.8%; with U251, 58%; in the test with NCI-H460 it was 83.2%. The inhibition at 10 µM in the test with SN12C came out at 32%; in the test with T-47D, 58.8%; with MALME-3 M, 53.1%; with OVCAR-4, 59.4%; in the test on A549/ATCC, 43.4%; with A498, 108%. Besides, the inhibition at 10 µM in the test on SF-295 was 29.4%; in the test with SNB-75 it was 66.6%; in the test on NCI 60 cancer cell lines, 61.8%. The Ki at hCA XII and on hCA IX was greater than 10 µM throughout.

In the case of `O=C1Nc2ccccc2C1=CNc1ccc(CNc2ccc(S(=O)(=O)Nc3ncccn3)cc2)cc1` [Compound 11b, 4-{[4-({[2-Oxoindolin-3-ylidene]methyl}amino)benzyl]amino}-N-(pyrimidin-2-yl)benzenesulfonamide], the “Cell Growth inhibition Percent” value with UO-31 (10 μM single dose) is given as 39.47%. The inhibition at 10 µM in the test with UO-31 was 39.3%; in the test on K-562, 32.8%; with UACC-62, 3.27%; in the test with KM12, 77.3%; with U251, 14.4%; with NCI-H460, 4.26%. Also, the inhibition at 10 µM in the test with T-47D turned out to be 27.5%; with OVCAR-4 it was 11.5%; in the test on BT-549, 6.46%; in the test with SF-295 it was 0.84%; with SNB-75, 16.6%; with NCI 60 cancer cell lines, 7.38%. The Ki was 8.57 µM at hCA XII and 7.86 µM on hCA IX. For the same compound, the “Selectivity ratio I/XII” value on hCA XII (Ki hCA I / Ki hCA XII) is reported as 1.06. The “Selectivity ratio II/XII” value on hCA XII (Ki hCA II / Ki hCA XII) was 0.31. The “Selectivity ratio I/IX” value at hCA IX (Ki hCA I / Ki hCA IX) was 1.16. Besides, on hCA IX (Ki hCA II / Ki hCA IX), the “Selectivity ratio II/IX” value came out at 0.34.

The values are drawn from paper PMC10353187, “Discovery of a new potent oxindole multi-kinase inhibitor among a series of designed 3-alkenyl-oxindoles with ancillary carbonic anhydrase inhibitory activity as antiproliferative agents” (BMC Chemistry, 2023).
